Experimental findings from US11932626B2, “2-pyrimidone analogs as potent antiviral agents against Alphaviruses” (priority 2020, dated 2024) are described below.

Molecules are shown by their SMILES.

The subject of one series is VEEV (TC-83). Put plainly: microbe, parasite or virus in culture. In kind it is cell-based. As to conditions: Venezuelan equine encephalitis virus, read-out: VEEV EC50.
The next series is described as follows: in vitro. As to conditions: human.
In the next series the test system is VEEV. Put plainly: microbe, parasite or virus in culture. It counts as cell-based. The following applies: Venezuelan equine encephalitis virus, NHDF; for EC90: read-out: VEEV EC90; for log reduction at 10 µM: read-out: VEEV VTR.
Series [1] has as its system CHIKV linked NanoLuc luciferase reporter. Put plainly: microbe, parasite or virus in culture. In kind it is cell-based. The following applies: Chikungunya virus, read-out: CHIKV EC50.
The next series relates to CHIKV. Nature of the series: CHIKV virus titer reduction (VTR) assay in NHDF cells. The following applies: Chikungunya virus; for log reduction at 10 µM: CHIKV titer reduction at 10 μM, normal human dermal fibroblasts (NHDF) cells; for EC90: effective concentration of 90% inhibition of virus in a VTR assay, NHDF cells. It counts as cell-based.

In general, EC50 refers to the concentration giving half of the maximal effect. By EC90 is commonly meant the concentration needed for an effect of 90%. For `O=C(COc1cc(Oc2ccc(F)cc2)[nH]c(=O)n1)NC12CC3CC(CC(C3)C1)C2` [compound 37, N-(adamantan-1-yl)-2-((6-(4-fluorophenoxy)-2-oxo-1,2-dihydropyrimidin-4-yl)oxy)acetamide], the EC50 (with VEEV (TC-83); in series [1]) was more than 40 µM throughout. The compound also came in with a CC50 in the series “in vitro” of more than 40 µM. In addition, the EC90 in the series with VEEV and with CHIKV was more than 10 µM throughout. In addition, the log reduction at 10 µM was found to be 0.8 in the series with VEEV and 0 with CHIKV.

With `Cc1[nH]c(=O)nc(SCC(=O)NC23CC4CC(CC(C4)C2)C3)c1C(=O)O` [compound 38, 4-((2-((Adamantan-1-Yl)Amino)-2-Oxoethyl)Thio)-6-Methyl-2-Oxo-1,2-Dihydropyrimidine-5-Carboxylic Acid], the EC50 (with VEEV (TC-83); in series [1]) was more than 40 µM each time. For the same compound, the CC50 in “in vitro” was more than 40 µM. Moreover, the figures for the log reduction at 10 µM in the series on VEEV and with CHIKV were 0.23 and 1.19, respectively.

As for `CC(C)Oc1cc(OCC(=O)NC23CC4CC(CC(C4)C2)C3)nc(=O)[nH]1` [compound 45, N-(Adamantan-1-Yl)-2-((6-Isopropoxy-2-Oxo-1,2-Dihydropyrimidin-4-Yl)Oxy)Acetamide], the results for the EC50 (in the series on VEEV (TC-83); in series [1]) were 8.95 µM and 0.429 µM, respectively. Moreover, in “in vitro”, the CC50 is more than 40 µM. In addition, the figures for the EC90 with VEEV and in the series with CHIKV were 0.98 µM and 0.08 µM, respectively. Besides, the log reduction at 10 µM turned out to be 2.62 in the series on VEEV and 5.58 in the series on CHIKV.

As for `COc1[nH]c(=O)nc(OCC(=O)NC23CC4CC(CC(C4)C2)C3)c1F` [compound 46, N-(adamantan-1-yl)-2-((5-fluoro-6-methoxy-2-oxo-1,2-dihydropyrimidin-4-yl)oxy)acetamide], the EC50 (in the series with VEEV (TC-83); in series [1]) was more than 40 µM each time. The compound further came in with a CC50 in the series “in vitro” of more than 40 µM. Also, the EC90 with VEEV and in the series with CHIKV was more than 10 µM in each case. Also, the log reduction at 10 µM with VEEV was 0; in the series with CHIKV it was 0.42.

On to `O=C(COc1cc(OC2CC(F)(F)C2)[nH]c(=O)n1)NC12CC3CC(CC(C3)C1)C2` [compound 47, N-(Adamantan-1-Yl)-2-((6-(3,3-Difluorocyclobutoxy)-2-Oxo-1,2-Dihydropyrimidin-4-Yl)Oxy)Acetamide], for which the EC50 with VEEV (TC-83) was more than 40 µM; in series [1], 6.78 µM. The CC50 in “in vitro” was more than 40 µM. For the same compound, the EC90 with VEEV was more than 10 µM; in the series with CHIKV it was 0.8 µM. The figures for the log reduction at 10 µM with VEEV and in the series with CHIKV were 0.28 and 5.66, respectively.

Consider `O=C(COc1cc(OC2CC2)[nH]c(=O)n1)NC12CC3CC(CC(C3)C1)C2` [compound 48, N-(Adamantan-1-Yl)-2-((6-Cyclopropoxy-2-Oxo-1,2-Dihydropyrimidin-4-Yl)Oxy)Acetamide], for which the EC50 with VEEV (TC-83) stood at 3.77 µM; in series [1] it was 0.283 µM. In addition, the CC50 in “in vitro” is more than 40 µM. Besides, the EC90 with VEEV is 0.65 µM; with CHIKV, 0.06 µM. In addition, the log reduction at 10 µM in the series on VEEV worked out at 3.28; in the series on CHIKV, 5.51.

For the compound `COCCOc1cc(OCC(=O)NC23CC4CC(CC(C4)C2)C3)nc(=O)[nH]1` [compound 49, N-(Adamantan-1-Yl)-2-((6-(2-Methoxyethoxy)-2-Oxo-1,2-Dihydropyrimidin-4-Yl)Oxy)Acetamide], the figures for the EC50 (in the series on VEEV (TC-83); in series [1]) were 38.6 µM and 3.08 µM, respectively. This compound also yielded a CC50 in “in vitro” of more than 40 µM. Moreover, the 90% effect concentration (EC90) in the series on VEEV was more than 10 µM; with CHIKV it was 1.3 µM. In addition, the values for the log reduction at 10 µM in the series with VEEV and in the series with CHIKV were 0 and 3.73, respectively.

As for `O=C(COc1nc(=O)[nH]c(OCCO)c1F)NC12CC3CC(CC(C3)C1)C2` [compound 50, N-(adamantan-1-yl)-2-((5-fluoro-6-(2-hydroxyethoxy)-2-oxo-1,2-dihydropyrimidin-4-yl)oxy)acetamide], the EC50 in the series on VEEV (TC-83) is more than 40 µM; in series [1], 25.4 µM. Also, in the series “in vitro”, the CC50 is more than 40 µM. Also, the concentration for an effect of 90% (EC90) in the series with VEEV and in the series on CHIKV was more than 10 µM each time. Further, the log reduction at 10 µM with VEEV was 0.5; in the series on CHIKV it was 0.

With `CC(C)(C)COc1cc(OCC(=O)NC23CC4CC(CC(C4)C2)C3)nc(=O)[nH]1` [compound 51, N-(Adamantan-1-Yl)-2-((6-(Neopentyloxy)-2-Oxo-1,2-Dihydropyrimidin-4-Yl)Oxy)Acetamide], the EC50 with VEEV (TC-83) is more than 40 µM; in series [1], 7.43 µM. The CC50 in “in vitro” was more than 40 µM. The results for the EC90 with VEEV and with CHIKV were 0.1 µM and 0.75 µM, respectively. Also, the log reduction at 10 µM in the series with VEEV was found to be 3.85; in the series on CHIKV it was 3.77.

With `CC(C)(C#N)COc1cc(OCC(=O)NC23CC4CC(CC(C4)C2)C3)nc(=O)[nH]1` [compound 52, N-(Adamantan-1-Yl)-2-((6-(2-Cyano-2-Methylpropoxy)-2-Oxo-1,2-Dihydropyrimidin-4-Yl)Oxy)Acetamide], the EC50 in the series on VEEV (TC-83) is more than 40 µM; in series [1], 13.7 µM. In “in vitro”, this compound registered a CC50 of more than 40 µM. Besides, the EC90 with VEEV and with CHIKV was 2.5 µM throughout. The figures for the log reduction at 10 µM in the series on VEEV and in the series on CHIKV were 2.5 and 2.42, respectively.

For the compound `CCOc1cc(OCC(=O)NC23CC4CC(CC(C4)C2)C3)nc(=O)[nH]1` [compound 55, N-(Adamantan-1-Yl)-2-((6-Ethoxy-2-Oxo-1,2-Dihydropyrimidin-4-Yl)Oxy)Acetamide], the EC50 was 2.78 µM in the series with VEEV (TC-83) and 0.179 µM in series [1]. The same compound had a CC50 in “in vitro” of more than 40 µM. Besides, the EC90 in the series on VEEV is more than 10 µM; with CHIKV, 0.14 µM. The log reduction at 10 µM with VEEV turned out to be 0.05; in the series on CHIKV, 4.

In the case of `CCC(C)Oc1cc(OCC(=O)NC23CC4CC(CC(C4)C2)C3)nc(=O)[nH]1` (stereo not shown) [compound 56, N-(adamantan-1-yl)-2-((6-(sec-butoxy)-2-oxo-1,2-dihydropyrimidin-4-yl)oxy)acetamide], the EC50 was determined as 16.2 µM in the series on VEEV (TC-83) and 0.701 µM in series [1]. This compound yielded a CC50 in “in vitro” of more than 40 µM. The EC90 with VEEV is more than 10 µM; in the series with CHIKV it was 0.17 µM. In addition, the values for the log reduction at 10 µM in the series on VEEV and with CHIKV were 0 and 6.6, respectively.
